Broadly, the Km is the concentration of substrate that gives half-maximal velocity.

Series [1] addresses T1, H. pylori glutamate racemase (Helicobacter pylori, UniProt Q9ZLT0).
T1 construct: made in house; host or cells: E. coli BL21(DE3) carrying pET-23-murI and pACYC-groE (GroES/GroEL co-expressed)
The series is described as follows: Inactivation of glutamate racemase by L-serine-O-sulfate, single enzyme coupled assay. In kind it is biochemical. The note with it: 20 mM L-serine-O-sulfate, different incubation times, FIG. 7. On the procedure:
In this assay, the conversion of D-glutamic acid to L-glutamic acid is coupled to the conversion of L-glutamic acid and NAD^+by L-glutamate dehydrogenase to 2-oxoglutarate, ammonia. The production of NADH is measured as an increase of absorbance at 340 nm (the reduction of NAD^+ to NADH) at 37° C. The standard assay mixture (adapted from Choi, S- Y, Esaki, N., Yoshimura, T., and Soda, K., 1991, Protein Expression and Purification 2, 90-93) contained 10 mM Tris-HCl, pH 7.5, 5 mM NAD+, 5 Units/ml L-glutamate dehydrogenase, varying concentrations of the substrate D-Glutamic Acid (0.063 mM to 250 mM), and the purified recombinant H. pylori enzyme glutamate racemase (1 μg to 50 μg). The reaction was started by the addition of either the substrate D-glutamic acid or the recombinant glutamate racemase after a preincubation at 37° C. for 5 minutes with all of the other assay ingredients. The change in absorbance at 340 nm was measured in a Spectra MAX 250. Initial velocities were derived from the initial slopes. […]
The H. pylori glutamate racemase was tested for inactivation with a sucuide inhibitor, L-serine-O sulfate, which is known to inhibit murI from E. coli. […] The initial velocity of purified recombinant H. pylroi murI protein was determined in the single enzyme coupled asssay following incubation with the inhibitor L-serine-O-sulfate (LSOS) at 20 mM for the times indicated on the x-axis. […]

Series [2] concerns the target H. pylori Asd (Helicobacter pylori, UniProt Q9ZK28). The series is described as follows: Asd assay, reverse reaction, NADPH formation. The note with it: read-out: Km for phosphate; pH 8.0. On the procedure:
(§1) The enzymatic activity of purified His-tagged H. pylori Asd (SEQ ID NO: 6545) was characterized by assaying the reverse reaction of phosphorylation of L-aspartate-β-semialdehyde (ASA) to L-p-aspartyl phosphate, with concomitant reduction of NADP^+ to NADPH. The formation of NADPH was detected by its absorbance, 340 nm, or by its fluorescence, excitation =340 nm, emission 455 nm.
(§2) ASA in 4 N HCl was prepared daily for use in Asd assays by partial neutralization with addition of 1.0 equivalent of […], with a resulting pH=1-2. The amount of ASA was determined enzymatically by complete reaction in the presence of excess NADP^+and phosphate. […] Assays were performed in the following buffer: 200 mM HEPES, 0.3 mM NADP^+, 30 mM NaH2PO4, 1.0 mM DTT, pH 7.5 or pH 8.0. ASA was used in the assay at concentrations of 5-165 μM by diluting the partially-neutralized ASA stock into the assay 10-200 fold, leading to a decrease in pH of 0.1 units or less. Reaction was initiated with the addition of enzyme to a final concentration of 3.5-70 nM.

For series [3], the target named is T2, E. coli Asd (Escherichia coli, UniProt P0A9Q9).
T2 construct: made in house; host or cells: E. coli HMS174 pLysS, pET28b
T2 sequence (P0A9Q9 1-367): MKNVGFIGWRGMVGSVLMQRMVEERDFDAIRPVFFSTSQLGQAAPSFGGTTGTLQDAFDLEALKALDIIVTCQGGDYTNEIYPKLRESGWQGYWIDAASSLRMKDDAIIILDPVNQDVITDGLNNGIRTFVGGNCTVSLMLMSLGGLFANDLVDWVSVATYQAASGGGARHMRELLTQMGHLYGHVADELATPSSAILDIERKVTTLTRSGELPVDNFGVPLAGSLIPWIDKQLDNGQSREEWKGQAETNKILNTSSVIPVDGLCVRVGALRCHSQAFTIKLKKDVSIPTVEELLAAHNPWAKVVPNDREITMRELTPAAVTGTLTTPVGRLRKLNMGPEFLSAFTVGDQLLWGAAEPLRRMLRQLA
Nature of the series: Asd assay, reverse reaction, NADPH formation. The format is biochemical. The note with it: pH 7.5; read-out: Km for phosphate. On the procedure:
as §1, §2

Series [4] deals with H. pylori (strain AH244). In kind it is in vivo. The note with it: BALB/c mice infected with strain AH244, 100 μg antigen + 10 μg CT orally, compared to control, FIGS. 3 and 4.
Series [5] in a line: Stability of ASA in solution. The format is physicochemical. As for the experimental part:
ASA in 4 N HCl was prepared daily for use in Asd assays by partial neutralization with addition of 1.0 equivalent of […], with a resulting pH=1-2. The amount of ASA was determined enzymatically by complete reaction in the presence of excess NADP^+and phosphate. […] These observations are consistent with previous reports on the stability of ASA (Karsten et al., 1991, Biochim. Biophys. Acta 1077, 209-219). Assays were performed in the following buffer: 200 mM HEPES, 0.3 mM NADP^+, 30 mM NaH2PO4, 1.0 mM DTT, pH 7.5 or pH 8.0. ASA was used in the assay at concentrations of 5-165 μM by diluting the partially-neutralized ASA stock into the assay 10-200 fold, leading to a decrease in pH of 0.1 units or less. Reaction was initiated with the addition of enzyme to a final concentration of 3.5-70 nM.

Where two headings read alike, the source gives them in different places.

H. pylori Asd, sequence (Q9ZK28 whole entry): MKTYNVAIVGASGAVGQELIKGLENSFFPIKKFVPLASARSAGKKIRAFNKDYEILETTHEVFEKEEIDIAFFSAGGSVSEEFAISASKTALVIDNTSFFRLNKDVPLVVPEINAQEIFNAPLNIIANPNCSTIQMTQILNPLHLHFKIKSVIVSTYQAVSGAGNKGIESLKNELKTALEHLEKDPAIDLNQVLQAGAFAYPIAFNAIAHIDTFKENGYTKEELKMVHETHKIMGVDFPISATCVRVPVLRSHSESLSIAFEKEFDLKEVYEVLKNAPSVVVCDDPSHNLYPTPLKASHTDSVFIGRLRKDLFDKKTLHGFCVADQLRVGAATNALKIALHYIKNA
T1 sequence (Q9ZLT0 whole entry): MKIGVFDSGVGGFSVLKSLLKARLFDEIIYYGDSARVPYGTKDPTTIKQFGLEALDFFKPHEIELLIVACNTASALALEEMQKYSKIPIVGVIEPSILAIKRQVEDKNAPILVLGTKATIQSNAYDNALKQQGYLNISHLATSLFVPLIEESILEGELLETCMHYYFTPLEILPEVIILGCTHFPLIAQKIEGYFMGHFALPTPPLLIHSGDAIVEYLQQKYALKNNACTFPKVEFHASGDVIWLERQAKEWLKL

Take `N[C@@H](COS(=O)(=O)O)C(=O)O` [L-Serine-O-Sulfate]: the “inactivation of glutamate racemase by the inhibitor (residual initial velocity)” value in series [1] was “readily inactivated”.
For the compound phosphate [reference compound], the Km in series [2] was determined as 2100 µM; in series [3], 1300 µM.
On to “lacZ: non-Helicobacter pylori control protein (β-galactosidase from E. coli) constructed with a hexa-HIS tag [reference compound]”, for which, in series [4], the “degree of colonization of the antrum” value is listed as “higher Helicobacter colonization” and the “reduction and/or eradication of the H. pylori infection (therapeutic immunization effect)” value was “no eradication effect”. The “degree of colonization of the antrum” value in series [4] (listed as LacZ) was “highest colonization in the antrum”.
Turning to `N[C@@H](CC=O)C(=O)O` [ASA, L-aspartate-β-semialdehyde], the half-life in series [5] (assay buffer, pH 7.7 (under assay conditions), read-out: t½ (converted)) was 5 h. In series [5] (pH 1.4), the “time ASA found to be stable” value is given as “up to 48 hours”.

These data come from patent US20040052799A1, “Nucleic acid and amino acid sequences relating to Helicobacter pylori for diagnostics and therapeutics” (Astra Aktiebolag, priority 1996, published 2004).
